Literature values, collected in patent US20240390363A1, “GRANULES CONTAINING POSACONAZOLE” (ALFRED E. TIEFENBACHER (GMBH & CO. KG), priority 2021, published 2024).

Key:
[1] = forms compared with form I
[2] = storage or stress conditions; form IV: aqueous suspension

Row | SMILES | Aqueous / water solubility [1] | Stability of the crystalline form [2]
1 | CC[C@@H]([C@H](C)O)n1ncn(-c2ccc(N3CCN(c4ccc(OC[C@@H]5CO[C@@](Cn6cncn6)(c6ccc(F)cc6F)C5)cc4)CC3)cc2)c1=O [Posaconazole] | low aqueous solubility | 
2 | CC[C@@H]([C@H](C)O)n1ncn(-c2ccc(N3CCN(c4ccc(OC[C@@H]5CO[C@@](Cn6cncn6)(c6ccc(F)cc6F)C5)cc4)CC3)cc2)c1=O [form IV, posaconazole] | better water solubility | better stability in an aqueous suspension
3 | CC[C@@H]([C@H](C)O)n1ncn(-c2ccc(N3CCN(c4ccc(OC[C@@H]5CO[C@@](Cn6cncn6)(c6ccc(F)cc6F)C5)cc4)CC3)cc2)c1=O [form Y, posaconazole] | better water solubility | as stable as form I
